Experimental data: US20100286035A1, “NEUROMEDIN U DERIVATIVE” (Takeda Pharmaceutical Company Limited, priority 2007, published 2010)
Where no end group is shown, it is not given here.

How the values were obtained:
Type in all cases: in vivo
[1] = tested on: male C57BL/6J mice; assay: Test Example 8: antifeedant activity of NMU-8 PEG conjugate in mice; conditions: 100 nmol/kg intraperitoneally, mice fasted for 16 hours (FIG. 9)
Procedure: (§1) 7 weeks old male C57BL/6J mice delivered from the Japan Charles River Company were raised for 5 to 10 days after delivery under a feeding environment regulated for temperature and humidity with lighting time (25° C., 12 hours of lighted period and 12 hours of dark period, light was lit at 8:00). Four animals were placed in one cage. After handling the mice for 5 to 8 days, the animals were housed singly in each cage where a floor mesh was spread and acclimated by intraperitoneal injection for 3 days prior to the administration of a peptide (conjugate). The animals acclimated were fasted for 16 hours from 18:00 prior to the administration of the peptide (conjugate). However, the animals has free access to drinking water). Subsequently, a peptide (conjugate) dissolved in physiological saline solution was intraperitoneally injected to the mice, namely 24.3 μM PEG30k (ACP)-NMU-8 [14], 24.3 μM (PEG20k)2 (ACP)-NMU-8 [29], 24.3 μM PEG30k (AB)-NMU-8 [11], 24.3 μM (PEG20k)2 (AB)-NMU-8 [26], 24.3 μM PEG30k (NH-AB)-NMU-8 [42], 24.3 μM PEG30k (SMCC)-NMU-8 [4] were administered intraperitoneally at 10:00 on the day of administration to the mice such that the dosage of each solution (100 μl) was 100 nmol/kg. After the injection of the peptide (conjugate) solution, MF feed which had been weighed (Oriental Yeast Industry) was given freely to the mice. Further, the residual amount of the feed was measured after 3, 6 and 24 hours. The food intakes at 3, 6 and 24 hours were calculated by subtracting the residual amount of the feed after 3, 6 and 24 hours from the amount of the feed that was originally given.

[2] = tested on: male C57BL/6J mice; assay: Test Example 7: antifeedant activity of NMU-8 PEG conjugate in mice; conditions: 10 nmol/kg intraperitoneally, mice fasted for 16 hours (FIG. 8)
Procedure: 7 weeks old male C57BL/6J mice delivered from the Japan Charles River Company were raised for 5 to 10 days after delivery under a feeding environment regulated for temperature and humidity with lighting time (25° C., 12 hours of lighted period and 12 hours of dark period, light was lit at 8:00). Four animals were placed in one cage. After handling the mice for 5 to 8 days, the animals were housed singly in each cage where a floor mesh was spread and acclimated by intraperitoneal injection using a syringe (micro injector, syringe for insulin administration, Terumo) for 3 days prior to the administration of a peptide (conjugate). The animals acclimated were fasted for 16 hours from 18:00 prior to the administration of the peptide (conjugate). However, the animals were free access to drinking water). Subsequently, a peptide dissolved in physiological saline solution (conjugate) namely 2.51 μM PEG30k-NMU-8 [5], 2.51 μM PEG30k-Cys-NMU-8 [6], 2.51 μM PEG30k-(Traut)-NMU-8 [7], 2.51 μM PEG30k (SMCC)-NMU-8 [4] were administered intraperitoneally at 10:00 on the day of administration to the mice such that the dosage of each solution (100 μl) was 10 nmol/kg. After the injection of the peptide (conjugate) solution, MF feed which had been weighed (Oriental Yeast Industry) was given freely to the mice. Further, the residual amount of the feed was measured after 3, 6 and 24 hours. The food intakes at 3, 6 and 24 hours were calculated by subtracting the residual amount of the feed after 3, 6 and 24 hours from the amount of the feed that was originally given.

[3] = tested on: male C57BL/6J mice; assay: Test Example 6: antifeedant activity of NMU-8 PEG conjugate in mice; conditions: 100 nmol/kg intraperitoneally, mice fasted for 16 hours (FIG. 7)
Procedure: as §1, with “had” for “has”, “Subsequently, a peptide (conjugate) dissolved in physiological saline solution was intraperitoneally injected to the mice, namely 24.3 μM PEG30k (ACP)-NMU-8 [14], 24.3 μM (PEG20k)2 (ACP)-NMU-8 [29], 24.3 μM PEG30k (AB)-NMU-8 [11], 24.3 μM (PEG20k)2 (AB)-NMU-8 [26], 24.3 μM PEG30k (NH-AB)-NMU-8 [42], 24.3 μM PEG30k (SMCC)-NMU-8 [4] were administered intraperitoneally at 10:00 on the day of administration to the mice such that the dosage of each solution (100 μl) was 100 nmol/kg.” left out

[4] = tested on: male C57BL/6J mice; assay: Test Example 5: antifeedant activity of NMU-8 PEG conjugate in mice; conditions: 10 nmol/kg intraperitoneally, mice fasted for 16 hours (FIG. 6)
Procedure: 7 weeks old male C57BL/6J mice delivered from the Japan Charles River Company were raised for 5 to 10 days after delivery under a feeding environment regulated for temperature and humidity with lighting time (25° C., 12 hours of lighted period and 12 hours of dark period, light was lit at 8:00). Four animals were placed in one cage. After handling the mice for 5 to 8 days, the animals were housed singly in each cage where a floor mesh was spread and acclimated by intraperitoneal injection using a syringe (micro injector, syringe for insulin administration, Terumo) for 3 days prior to the administration of a peptide (conjugate). The animals acclimated were fasted for 16 hours from 18:00 prior to the administration of the peptide (conjugate). However, the animals had free access to drinking water). Subsequently, a peptide dissolved in physiological saline solution (conjugate) namely 2.39 μM PEG30k (GMBS)-NMU-8 [1], 2.39 μM PEG30k (EMCS)-NMU-8 [2], 2.39 μM PEG30k (KMUS)-NMU-8 [3], 2.39 μM PEG30k (SMCC)-NMU-8 [4] were administered intraperitoneally at 10:00 on the day of administration to the mice such that the dosage of each solution (100 μl) was 10 nmol/kg. After the injection of the peptide (conjugate) solution, MF feed which had been weighed (Oriental Yeast Industry) was given freely to the mice. Further, the residual amount of the feed was measured after 3, 6 and 24 hours. The food intakes at 3, 6 and 24 hours were calculated by subtracting the residual amount of the feed after 3, 6 and 24 hours from the amount of the feed that was originally given.

[5] = tested on: male C57BL/6J mice; assay: Test Example 4: antifeedant activity of NMU-8 PEG conjugate in mice; conditions: 100 nmol/kg intraperitoneally, mice fasted for 16 hours (FIG. 5)
Procedure: 7 weeks old male C57BL/6J mice delivered from the Japan Charles River Company were raised for 5 to 10 days after delivery under a feeding environment regulated for temperature and humidity with lighting time (25° C., 12 hours of lighted period and 12 hours of dark period, light was lit at 8:00). Four animals were placed in one cage. After handling the mice for 5 to 8 days, the animals were housed singly in each cage where a floor mesh was spread and acclimated by intraperitoneal injection for 3 days prior to the administration of a peptide (conjugate). The animals acclimated were fasted for 16 hours from 18:00 prior to the administration of the peptide (conjugate). However, the animals had free access to drinking water). Subsequently, a peptide dissolved in physiological saline solution (conjugate) was intraperitoneally injected into the mice, namely 24.2 μM PEG30k (GMBS)-NMU-8 [1], 24.2 μM PEG30k (EMCS)-NMU-8 [2], 24.2 μM PEG30k (KMUS)-NMU-8 [3], 24.2 μM PEG30k (SMCC)-NMU-8 [4] were administered intraperitoneally at 10:00 on the day of administration to the mice such that the dosage of each solution (100 μl) was 100 nmol/kg. After the injection of the peptide (conjugate) solution, MF feed which had been weighed (Oriental Yeast Industry) was given freely to the mice. Further, the residual amount of the feed was measured after 3, 6 and 24 hours. The food intakes at 3, 6 and 24 hours were calculated by subtracting the residual amount of the feed after 3, 6 and 24 hours from the amount of the feed that was originally given.

[6] = tested on: male C57BL/6J mice; assay: Test Example 2: antifeedant activity of NMU-23 and NMU-8 in mice
Procedure: 7 weeks old male C57BL/6J mice (mean bodyweight: 25 g) delivered from the Japan Charles River Company were raised for 5 to 10 days after delivery under a feeding environment regulated for temperature and humidity with lighting time (25° C., 12 hours of lighted period and 12 hours of dark period, light was lit at 8:00). Four animals were placed in one cage. After handling the mice for 5 to 8 days, the animals were housed singly in each cage where a floor mesh was spread and acclimated by intraperitoneal injection for 3 days prior to the administration of a peptide. The animals acclimated were fasted for 16 hours from 18:00 prior to the administration of the peptide. However, the animals had free access to drinking water. […] After the injection of the peptide solution, MF feed which had been weighed (Oriental Yeast Industry) was given freely to the mice. Further, the residual amount of the feed was measured after 3, 6 and 24 hours. The food intakes at 3, 6 and 24 hours were calculated by subtracting the residual amount of the feed after 3, 6 and 24 hours from the amount of the feed that was originally given.
[In FIG. 2, * and ** tested by T-tests indicated to be lower at the levels of significance of 0.05 and 0.01 (P<0.05 and P<0.01]

[7] = tested on: male C57BL/6J mice; assay: Test Example 1: antifeedant activity of NMU-23 and NMS in mice; conditions: 3 mg/kg intraperitoneally, mice fasted for 16 hours
Procedure: 7 weeks old male C57BL/6J mice (mean bodyweight: 24 g) delivered from the Japan Charles River Company were raised for 5 to 7 days after the delivery under a feeding environment regulated for temperature and humidity with lighting time (25° C., 12 hours of lighted period and 12 hours of dark period, light was lit at 8:00). Four animals were placed in one cage. After handling the mice for 5 to 8 days, the animals were housed singly in each cage where a floor mesh was spread and acclimated by intraperitoneal injection for 3 days prior to the administration of a peptide. The animals acclimated were fasted for 16 hours from 18:00 prior to the administration of the peptide. However, the animals had free access to drinking water. Subsequently, a peptide, namely 720 μg/ml rat NMU-23 (peptide Institution) [Sequence No. 5], or rat NMS (Bachem) [Sequence No. 9] dissolved in physiological saline solution was intraperitoneally injected to the mice such that the dosage of each solution (100 μl) was 3 mg/kg at 10:00 on the day of administration. […] Further, the residual amount of the feed was measured after 3, 6 and 24 hours. The food intakes at 3, 6 and 24 hours were calculated by subtracting the residual amount of the feed after 3, 6 and 24 hours from the amount of the feed that was originally given. […]

(PEG20k)2(ACP)-NMU-8
intakes of the feed at 3, 6 and 24 hours [1]: significantly suppressed

PEG30k(AB)-NMU-8
intakes of the feed at 3, 6 and 24 hours [1]: significantly suppressed

PEG30k-Cys-NMU-8 (C(PEG 30 kDa)FFLFRPRN-NH2)
intakes of the feed at 3, 6 and 24 hours [2]: significantly suppressed | intakes of the feed at 3, 6 and 24 hours [3]: significantly suppressed

PEG30k(ACP)-NMU-8
intakes of the feed at 3, 6 and 24 hours [1]: significantly suppressed

PEG30k-NMU-8
intakes of the feed at 3, 6 and 24 hours [2]: significantly suppressed | intakes of the feed at 3, 6 and 24 hours [3]: significantly suppressed

PEG30k(Traut)-NMU-8
intakes of the feed at 3, 6 and 24 hours [2]: significantly suppressed | intakes of the feed at 3, 6 and 24 hours [3]: significantly suppressed

PEG30k(GMBS)-NMU-8
intakes of the feed at 3, 6 and 24 hours [4]: significantly suppressed | intakes of the feed at 3, 6 and 24 hours [5]: significantly suppressed

Tyr-Lys-Val-Asn-Glu-Tyr-Gln-Gly-Pro-Val-Ala-Pro-Ser-Gly-Gly-Phe-Phe-Leu-Phe-Arg-Pro-Arg-Asn-NH2 (YKVNEYQGPVAPSGGFFLFRPRN-NH2; listed as Rattus norvegicus) [rat NMU-23]
intakes of the feed at 3 and 6 hours ([6]; 3 mg/kg intraperitoneally, mice fasted for 16 hours): significantly suppressed | antifeedant activity via peripheral administration ([6]; peripheral administration): expresses an antifeedant activity | intakes of the feed at 3, 6 and 24 hours [7]: significantly suppressed

PEG30k(EMCS)-NMU-8
intakes of the feed at 3, 6 and 24 hours [4]: significantly suppressed | intakes of the feed at 3, 6 and 24 hours [5]: significantly suppressed

PEG30k(SMCC)-NMU-8
intakes of the feed at 3, 6 and 24 hours [2]: significantly suppressed | intakes of the feed at 3, 6 and 24 hours [4]: significantly suppressed | intakes of the feed at 3, 6 and 24 hours [5]: significantly suppressed | intakes of the feed at 3, 6 and 24 hours [1]: significantly suppressed | intakes of the feed at 3, 6 and 24 hours [3]: significantly suppressed

PEG30k(KMUS)-NMU-8
intakes of the feed at 3, 6 and 24 hours [4]: significantly suppressed | intakes of the feed at 3, 6 and 24 hours [5]: significantly suppressed

rat NMS: rat neuromedin S (Bachem) [Sequence No. 9] (LPRLLHTDSRMATIDFPKKDPTTSLGRPFFLFRPRN-NH2; listed as Rattus norvegicus)
intakes of the feed at 3, 6 and 24 hours [7]: significantly suppressed

(PEG20k)2(AB)-NMU-8
intakes of the feed at 3, 6 and 24 hours [1]: significantly suppressed
